US9169241B2, “Quinolinyloxyphenylsulfonamides” (Max-Planck-Gesellschaft Zur Forderung der Wissenschaften …, priority 2009, dated 2015)

Assays:
[1] = tested on: Hs578T; experiment: Wound healing migration assay; format: cell-based; details: Homo sapiens, Hs-578T; HS578T cell line; Table Ib
Summary of the method: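 Compound exposure at 12.5, 6.25 and 3.125 μM, with DMSO control, on scratch-wounded monolayers (150000 cells/24 well, overnight). Wound closure imaged by microscopy, fixed with crystal violet after 48 h or 72 h depending on cell line; IC50 is the concentration giving 50% wound size between t0 and t48/t72.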

[2] = target: T1, wild type AXL (wtAXL) receptor tyrosine kinase (Homo sapiens, UniProt P30530); experiment: NIH-3T3-AXL cellular kinase assay (pY-AXL-ELISA); format: cell-based; details: NIH-3T3-AXL (clone 22) cells, serum depleted, compounds 1 h; Table Ia
T1 construct: WtAXL cDNA was cloned into vector pLXSN(ESK) and transfected into Phoenix E packaging cells; expressed in transfected cells; host or cells: NIH3T3 N7 (mouse fibroblasts), retrovirally infected, clone 22
T1 sequence (P30530 26-894): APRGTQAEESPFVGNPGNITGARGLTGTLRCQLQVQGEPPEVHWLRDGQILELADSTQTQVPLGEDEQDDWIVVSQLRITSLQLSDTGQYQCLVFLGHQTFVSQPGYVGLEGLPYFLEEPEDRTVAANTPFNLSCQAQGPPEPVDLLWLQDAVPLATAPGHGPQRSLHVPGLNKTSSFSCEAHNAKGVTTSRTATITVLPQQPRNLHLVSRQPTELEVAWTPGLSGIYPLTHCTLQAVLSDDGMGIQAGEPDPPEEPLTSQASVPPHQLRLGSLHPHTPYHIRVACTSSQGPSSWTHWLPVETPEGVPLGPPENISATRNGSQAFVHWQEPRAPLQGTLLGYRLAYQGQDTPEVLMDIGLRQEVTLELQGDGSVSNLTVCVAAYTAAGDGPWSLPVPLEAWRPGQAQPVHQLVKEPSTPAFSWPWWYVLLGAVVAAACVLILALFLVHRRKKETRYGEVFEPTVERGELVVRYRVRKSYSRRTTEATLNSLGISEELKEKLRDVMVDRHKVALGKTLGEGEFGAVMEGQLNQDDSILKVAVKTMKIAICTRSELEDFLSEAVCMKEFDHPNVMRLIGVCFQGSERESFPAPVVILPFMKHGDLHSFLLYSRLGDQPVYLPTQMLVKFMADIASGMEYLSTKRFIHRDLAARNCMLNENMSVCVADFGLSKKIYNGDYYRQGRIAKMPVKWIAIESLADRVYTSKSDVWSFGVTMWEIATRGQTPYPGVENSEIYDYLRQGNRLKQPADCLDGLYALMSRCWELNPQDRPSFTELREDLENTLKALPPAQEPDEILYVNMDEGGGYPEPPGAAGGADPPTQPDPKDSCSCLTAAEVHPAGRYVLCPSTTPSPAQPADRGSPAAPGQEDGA
Summary of the method: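 Phospho-AXL was quantified by ELISA in lysates (4G10-biotin, streptavidin-AP, AttoPhos, 430/560 nm read at 90 min). The cells were monoclonal NIH3T3 lines stably transduced with human wtAXL, exposed to serial compound dilutions for 1 h before lysis.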

| IC50 [1] [µM] | IC50 [2] [µM] | SMILES |
| --- | --- | --- |
| ≤ 12.5 | < 0.5 | COc1cc2c(Oc3ccc(NS(=O)(=O)c4cccc(Oc5ccccc5)c4)cc3F)ccnc2cc1OCCCN1CCCC(C)C1 (stereo not shown) [Example 59, N-(3-Fluoro-4-{6-methoxy-7-[3-(3-methyl-piperidin-1-yl)-propoxy]-quinolin-4-yloxy}-phenyl)-3-phenoxy-benzenesulfonamide] |
| ≤ 12.5 | < 0.5 | COc1cc2c(Oc3c(Cl)cc(NS(=O)(=O)c4c(F)cccc4F)cc3Cl)ccnc2cc1OCCCN1CCC(C)CC1 [Example 209, N-(3,5-Dichloro-4-{6-methoxy-7-[3-(4-methyl-piperidin-1-yl)-propoxy]-quinolin-4-yloxy}-phenyl)-2,6-difluoro-benzenesulfonamide] |
| ≤ 12.5 | < 0.5 | COc1cc2c(Oc3ccc(NS(=O)(=O)c4cc(F)ccc4F)cc3F)ccnc2cc1OCCCN1CCN(C)CC1 [Example 12, 2,5-Difluoro-N-(3-fluoro-4-{6-methoxy-7-[3-(4-methyl-piperazin-1-yl)-propoxy]-quinolin-4-yloxy}-phenyl)-benzenesulfonamide] |
| ≤ 12.5 | < 0.5 | COc1cc2c(Oc3ccc(NS(=O)(=O)c4c(F)cccc4F)cc3F)ccnc2cc1OCCCN1CCCCC1 [Example 11, 2,6-Difluoro-N-{3-fluoro-4-[6-methoxy-7-(3-piperidin-1-yl-propoxy)-quinolin-4-yloxy]-phenyl}-benzenesulfonamide] |
| ≤ 12.5 | < 0.5 | COc1cc2c(Oc3ccc(NS(=O)(=O)c4ccccc4[N+](=O)[O-])cc3F)ccnc2cc1OCCCN1CCCCC1 [Example 7, N-{3-Fluoro-4-[6-methoxy-7-(3-piperidin-1-yl-propoxy)-quinolin-4-yloxy]-phenyl}-2-nitro-benzenesulfonamide] |
| ≤ 12.5 | < 0.5 | COc1cc2c(Oc3ccc(NS(=O)(=O)c4ccc(F)c(F)c4F)cc3F)ccnc2cc1OCCCN1CCCC(C)C1 (stereo not shown) [Example 49, 2,3,4-Trifluoro-N-(3-fluoro-4-{6-methoxy-7-[3-(3-methyl-piperidin-1-yl)-propoxy]-quinolin-4-yloxy}-phenyl)-benzenesulfonamide] |
| ≤ 12.5 | < 0.5 | COc1cc2c(Oc3ccc(NS(=O)(=O)c4c(Cl)cccc4Cl)cc3Cl)ccnc2cc1OCCCN1CCN(C)CC1 [Example 119, 2,6-Dichloro-N-(3-chloro-4-{6-methoxy-7-[3-(4-methyl-piperazin-1-yl)-propoxy]-quinolin-4-yloxy}-phenyl)-benzenesulfonamide] |
| ≤ 12.5 | < 0.5 | COc1cc2c(Oc3ccc(NS(=O)(=O)c4ccc(F)c(Cl)c4)cc3F)ccnc2cc1OCCCN1CCCC(C)C1 (stereo not shown) [Example 57, 3-Chloro-4-fluoro-N-(3-fluoro-4-{6-methoxy-7-[3-(3-methyl-piperidin-1-yl)-propoxy]-quinolin-4-yloxy}-phenyl)-benzenesulfonamide] |
| ≤ 12.5 | < 0.5 | COC(=O)c1sccc1S(=O)(=O)Nc1ccc(Oc2ccnc3cc(OCCCN4CCN(C)CC4)c(OC)cc23)c(F)c1 [Example 158, 3-(3-Fluoro-4-{6-methoxy-7-[3-(4-methyl-piperazin-1-yl)-propoxy]-quinolin-4-yloxy}-phenylsulfamoyl)-thiophene-2-carboxylic acid methyl ester] |
| ≤ 12.5 | < 0.5 | COc1cc2c(Oc3c(Cl)cc(NS(=O)(=O)c4ccccc4C(F)(F)F)cc3Cl)ccnc2cc1OCCCN1CCC(C)CC1 [Example 210, N-(3,5-Dichloro-4-{6-methoxy-7-[3-(4-methyl-piperidin-1-yl)-propoxy]-quinolin-4-yloxy}-phenyl)-2-trifluoromethyl-benzenesulfonamide] |
| ≤ 12.5 | < 0.5 | COc1cc2c(Oc3ccc(NS(=O)(=O)c4ccccc4[N+](=O)[O-])cc3F)ccnc2cc1OCCCN1CCCC(C)C1 (stereo not shown) [Example 40, N-(3-Fluoro-4-{6-methoxy-7-[3-(3-methyl-piperidin-1-yl)-propoxy]-quinolin-4-yloxy}-phenyl)-2-nitro-benzenesulfonamide] |
